One test concerns the target T1, κ (KOP) (Rattus norvegicus, UniProt P34975).
T1 construct: expressed in transfected cells; host or cells: CHO cells
The test can be described thus: In vitro radioligand binding assay, κ (KOP), [3H]U 69593. To be noted: rat recombinant (CHO cells). Here is the method:
Certain compounds were tested by in vitro binding assays using standard procedures. […] These receptors and assays are well known to those skilled in the art, as exemplified by the following: Abramovitz, M. et al. (2000), Biochem. Biophys. Acta., 1483: 285-293 (EP4, IP (PGI2)); Aharony, D. et al. (1993), Mol. Pharmacol., 44: 356-363 (NK2); Ardati, A. et al. (1997), Mol. Pharmacol., 51: 816-824 (NOP (ORL1)); Bignon, E. et al. (1999), J. Pharmacol. Exp. Ther. 289: 742-751 (CCK1 (CCKA)); Bloomquist, B. T. et al. (1998), Biochem. Biophys. Res. Commun., 243: 474-479 (GAL2); Brockhaus, M. et al. (1990), Proc. Natl. Acad. Sci. U.S.A., 87: 3127-3131 (TNF-α); Brown, G. B. (1986), J. Neurosci., 6: 2064-2070 (Na+ channel (site 2)); Buchan, K. W. et al. (1994), Brit. J. Pharmacol., 112: 1251-1257 (ETA); Cesura, A. M. et al. (1990), Mol. Pharmacol., 37: 358-366 (MAO-A); Choi, D. S. et al. (1994), FEBS Lett., 352: 393-399 (5-HT2B); Clark, A. F. et al. (1996), Invest. Ophtalmol. Vis. Sci., 37: 805-813 (GR); Couvineau, A. et al. (1985), Biochem. J., 231: 139-143 (VPAC1 (VIP1)); Dorje, F. et al. (1991), J. Pharmacol. Exp. Ther., 256: 727-733 (M1, M2, M3, M4); Ferry, G. et al. (2001), Eur. J. Pharmacol., 417: 77-89 (PPARγ); Fuchs, S. et al. (2001), Mol. Med., 7: 115-124 (ETB); Fuhlendorff, J. et al. (1990), Proc. Natl. Acad. Sci. U.S.A., 87: 182-186 (Y2); Ganapathy M E. et al. (1999), J. Pharmacol. Exp. Ther., 289: 251-260 (sigma (non-selective)); Gopalakrishnan, M. et al. (1996), J. Pharmacol. Exp. Ther., 276: 289-297 (N neuronal α4β2); Greengrass, P. and Bremner, R. (1979), Eur. J. Pharmacol., 55: 323-326 (α1 (non-selective)); Grandy, D. K. et al. (1989), Proc. Natl. Acad. Sci. U.S.A., 86: 9762-9766 (D25); Guard, S. et al. (1993), Eur. J. Pharmacol., 240:177-184 (BB (non-selective)); Heuillet, E. et al. (1993), J. Neurochem., 60: 868-876 (NK1, P2X); Hope, A. G. et al. (1996), Brit. […]

A further test has as its system GABA (non-selective). Nature of the test: In vitro radioligand binding assay, GABA (non-selective), [3H]GABA. The following applies: rat cerebral cortex membranes. Here is the method:
(§1) Certain compounds were tested by in vitro binding assays using standard procedures. […] These receptors and assays are well known to those skilled in the art, as exemplified by the following: Abramovitz, M. et al. (2000), Biochem. Biophys. Acta., 1483: 285-293 (EP4, IP (PGI2)); Aharony, D. et al. (1993), Mol. Pharmacol., 44: 356-363 (NK2); Ardati, A. et al. (1997), Mol. Pharmacol., 51: 816-824 (NOP (ORL1)); Bignon, E. et al. (1999), J. Pharmacol. Exp. Ther. 289: 742-751 (CCK1 (CCKA)); Bloomquist, B. T. et al. (1998), Biochem. Biophys. Res. Commun., 243: 474-479 (GAL2); Brockhaus, M. et al. (1990), Proc. Natl. Acad. Sci. U.S.A., 87: 3127-3131 (TNF-α); Brown, G. B. (1986), J. Neurosci., 6: 2064-2070 (Na+ channel (site 2)); Buchan, K. W. et al. (1994), Brit. J. Pharmacol., 112: 1251-1257 (ETA); Cesura, A. M. et al. (1990), Mol. Pharmacol., 37: 358-366 (MAO-A); Choi, D. S. et al. (1994), FEBS Lett., 352: 393-399 (5-HT2B); Clark, A. F. et al. (1996), Invest. Ophtalmol. Vis. […]

The subject of another test is sigma (non-selective). Nature of the test: In vitro radioligand binding assay, sigma (non-selective), [3H]DTG, Jurkat cells. The following applies: Jurkat cells (endogenous). Here is the method:
as §1

Structures are written as SMILES.

T1 sequence (P34975 whole entry): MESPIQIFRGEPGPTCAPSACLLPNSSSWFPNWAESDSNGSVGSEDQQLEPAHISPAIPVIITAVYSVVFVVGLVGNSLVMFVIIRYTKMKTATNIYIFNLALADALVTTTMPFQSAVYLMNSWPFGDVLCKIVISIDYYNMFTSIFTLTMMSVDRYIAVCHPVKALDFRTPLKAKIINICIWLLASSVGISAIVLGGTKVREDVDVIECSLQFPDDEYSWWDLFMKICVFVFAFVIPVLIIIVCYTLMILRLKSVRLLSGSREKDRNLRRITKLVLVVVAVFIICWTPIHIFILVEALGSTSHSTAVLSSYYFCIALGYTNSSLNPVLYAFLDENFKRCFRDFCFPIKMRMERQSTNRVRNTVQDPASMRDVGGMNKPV

With `Fc1ccc2c(c1)[C@H]([C@@H]1CCCN1)OCC2` [Compound I-5, (2S)-2-((R)-7-fluoroisochroman-1-yl)pyrrolidine], the “κ (KOP) percent inhibition of specific binding” value (from here on “κ (KOP) percent inhibition”) on κ (KOP) was found to be 71%. In the test with GABA (non-selective), the “GABA percent inhibition of specific binding” value worked out at 57%. For the molecule `Clc1ccc2c(c1)[C@H]([C@@H]1CCCN1)OCC2` [Compound I-29, (S)-2-((R)-7-chloroisochroman-1-yl)pyrrolidine], on κ (KOP), the “κ (KOP) percent inhibition” value amounted to 89%.

As to `Fc1ccc2c(c1)CCO[C@H]2[C@@H]1CCN1` [Compound I-90, (S)-2-((R)-6-fluoroisochroman-1-yl)azetidine], the “sigma percent inhibition of specific binding” value in the test on sigma (non-selective) was 63%.

For `Fc1cccc2c1CCO[C@@H]2[C@@H]1CCN1` [Compound I-94, (S)-2-((S)-5-fluoroisochroman-1-yl)azetidine], the “κ (KOP) percent inhibition” value on κ (KOP) was found to be 67%. Besides, the “sigma percent inhibition of specific binding” value with sigma (non-selective) is “sigma (85%)”.
